This is an account of results in ChEMBL document CHEMBL1201862, “PubChem BioAssay data set” (2004).

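Protocol summary: plate cells (96-well), add compound at 5 concentrations, incubate 48 h, interpolate endpoints linearly. GI50: concentration for 50% inhibition of growth.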 Calls of active or inactive are those of the source. Rule as the data show it: active = GI50 up to about 1.1 µM and inactive = higher.

Common to all, as to test: DTP human tumour cell line panel, 48 h
Test [1] has as its system K562.
In test [2] the test system is HL-60.
For test [3], the system named is LOX IMVI.
Test [4] has as its system UACC-257.
For test [5], the system named is CCRF-CEM.
The subject of test [6] is SK-MEL-5.
In test [7] the test system is UO-31.
In test [8] the test system is RPMI-8226.
Test [9] concerns 786-0.
For test [10], the system named is U-251.
In test [11] the test system is IGROV-1.
Test [12] concerns NCI-H23.
For test [13], the system named is CAKI-1.
Test [14] relates to OVCAR-4.
The subject of test [15] is SF-539.
Test [16] has as its system SK-MEL-28.
Test [17] has as its system HCT-15.

Turning to `CC(C)(C)c1ccc(OCCOCCOc2ccc(C(C)(C)C)cc2S(N)(=O)=O)c(S(N)(=O)=O)c1`, the GI50 (commonly the concentration that inhibits growth by half) in test [1] is > 100 µM (inactive); in [2], 14.5 µM (inactive); in test [3], 23.7 µM (inactive); in [4] it was 45.6 µM (inactive); in [5], > 100 µM (inactive); in [6], 8.13 µM (inactive). In addition, the GI50 was 5.85 µM (inactive) in test [7]; 7.55 µM (inactive) in test [8]; > 100 µM (inactive) in test [9]; > 100 µM (inactive) in test [10]; > 100 µM (inactive) in test [11]; > 100 µM (inactive) in test [12]. Also, the GI50 in [13] was > 100 µM (inactive); in test [14] it was > 100 µM (inactive); in test [15] it was > 100 µM (inactive); in test [16], 94.6 µM (inactive); in test [17] it was 45.6 µM.

As to `C/C(CC(=O)Nc1cc(Cl)c(Cl)cc1Cl)=N\NC(N)=O`, the GI50 in test [1], in [2], in test [3], in test [4], in test [5] and in [6] was > 100 µM (inactive) in each case. The GI50 in test [7], in [8], in test [9], in [10], in [11] and in [12] was > 100 µM (inactive) throughout. For the same compound, the GI50 in [15] and in test [16] was > 100 µM (inactive) each time.

On to `O=c1[nH]c(-c2ccc([N+](=O)[O-])cc2)nc2ccc(Cl)cc12`, for which the GI50 in test [1] was 17.9 µM (inactive); in [4], > 100 µM (inactive); in [6], > 100 µM (inactive); in test [7], > 100 µM (inactive); in test [8] it was 47.1 µM (inactive); in [9], > 100 µM (inactive). The GI50 in test [10] was 54.6 µM (inactive); in test [11] it was 55.3 µM (inactive); in test [12], > 100 µM (inactive); in [15], > 100 µM (inactive); in test [16] it was > 100 µM (inactive); in [17], 94.4 µM.

With `CC1CCC2(CC1)NN=c1s/c(=C\c3ccc(O)cc3)c(=O)n1N2` (configuration not stated), the GI50 was > 100 µM (inactive) in test [1]; > 100 µM (inactive) in test [2]; 81.8 µM (inactive) in test [3]; > 100 µM (inactive) in test [5]; > 100 µM (inactive) in test [6]; > 100 µM (inactive) in [8]. The GI50 in test [9], in test [10], in [11], in [12], in test [14] and in test [15] was > 100 µM (inactive) each time. The GI50 in [16] was > 100 µM (inactive).

For `CCOC(=O)NC(=O)c1cn(CCCCCCOC(=O)NCCCCCCNC(=O)OCCCCCCn2cc(C(=O)NC(=O)OCC)c(=O)[nH]c2=O)c(=O)[nH]c1=O`, the GI50 in test [1], in [2], in test [3], in test [4], in [5] and in test [6] was > 100 µM (inactive) throughout. Moreover, the GI50 in test [7], in test [8], in test [9], in test [10], in test [11] and in [13] was > 100 µM (inactive) each time. Further, the GI50 was > 100 µM (inactive) in test [14], > 100 µM (inactive) in test [15], > 100 µM (inactive) in test [16] and greater than 100 µM in [17].
